Experiment [1] concerns the target T1, Seed linoleate 13S-lipoxygenase-1 (Glycine max, UniProt P08170).
T1 sequence (P08170 whole entry): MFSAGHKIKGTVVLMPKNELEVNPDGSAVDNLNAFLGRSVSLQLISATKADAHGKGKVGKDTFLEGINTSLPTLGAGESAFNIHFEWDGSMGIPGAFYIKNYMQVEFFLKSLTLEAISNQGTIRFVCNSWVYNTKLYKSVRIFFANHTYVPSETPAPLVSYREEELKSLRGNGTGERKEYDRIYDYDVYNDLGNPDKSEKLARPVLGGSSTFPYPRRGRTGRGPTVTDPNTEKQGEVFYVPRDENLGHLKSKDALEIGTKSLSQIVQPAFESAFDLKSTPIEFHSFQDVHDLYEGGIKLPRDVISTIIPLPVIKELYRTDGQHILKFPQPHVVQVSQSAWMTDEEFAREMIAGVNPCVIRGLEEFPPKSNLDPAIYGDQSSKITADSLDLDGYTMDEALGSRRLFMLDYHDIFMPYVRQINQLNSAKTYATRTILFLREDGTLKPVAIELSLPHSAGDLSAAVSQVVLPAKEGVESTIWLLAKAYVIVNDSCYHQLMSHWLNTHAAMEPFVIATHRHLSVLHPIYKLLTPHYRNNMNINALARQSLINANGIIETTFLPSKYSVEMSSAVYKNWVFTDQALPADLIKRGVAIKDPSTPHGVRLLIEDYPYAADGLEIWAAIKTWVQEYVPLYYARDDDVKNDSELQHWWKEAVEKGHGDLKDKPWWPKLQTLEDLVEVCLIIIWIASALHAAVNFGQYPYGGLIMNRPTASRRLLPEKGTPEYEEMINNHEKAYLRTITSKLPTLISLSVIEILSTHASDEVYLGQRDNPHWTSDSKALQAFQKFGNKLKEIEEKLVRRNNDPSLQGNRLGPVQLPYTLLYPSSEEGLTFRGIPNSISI
Description: In vitro inhibitory activity against 15-lipoxygenase obtained from soybean

The target of experiment [2] is T2, Prostaglandin G/H synthase 1 (Ovis aries, UniProt P05979).
T2 sequence (P05979 whole entry): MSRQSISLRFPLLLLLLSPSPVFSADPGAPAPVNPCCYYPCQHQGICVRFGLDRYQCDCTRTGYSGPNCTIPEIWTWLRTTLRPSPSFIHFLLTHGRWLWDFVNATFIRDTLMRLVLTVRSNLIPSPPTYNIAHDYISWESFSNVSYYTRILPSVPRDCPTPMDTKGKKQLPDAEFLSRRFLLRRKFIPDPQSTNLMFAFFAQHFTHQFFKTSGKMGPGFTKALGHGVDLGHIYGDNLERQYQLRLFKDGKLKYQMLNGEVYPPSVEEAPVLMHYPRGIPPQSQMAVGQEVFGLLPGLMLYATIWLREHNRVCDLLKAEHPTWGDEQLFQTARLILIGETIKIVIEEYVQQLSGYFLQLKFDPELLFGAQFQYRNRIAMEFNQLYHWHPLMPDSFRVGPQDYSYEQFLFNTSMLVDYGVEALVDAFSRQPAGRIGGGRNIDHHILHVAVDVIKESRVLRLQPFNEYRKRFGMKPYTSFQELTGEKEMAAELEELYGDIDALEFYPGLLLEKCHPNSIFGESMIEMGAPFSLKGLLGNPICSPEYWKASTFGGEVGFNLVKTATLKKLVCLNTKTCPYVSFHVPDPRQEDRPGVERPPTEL
As to the kind of experiment: In vitro inhibitory activity against ovine cyclooxygenase 1.

In experiment [3] the target is T1, Seed linoleate 13S-lipoxygenase-1. This is another data set of the same source.
Description: In vitro inhibitory activity against 5-lipoxygenase obtained from potato

`CS(=O)(=O)c1ccc(C#CC(=O)c2ccccc2)cc1`: the IC50 was greater than 10 µM in experiment [1] and 1 µM in experiment [2].
Take `CS(=O)(=O)c1ccc(C#CC(=O)c2ccc(C(F)(F)F)cc2)cc1`: the IC50 is greater than 10 µM in experiment [1], greater than 10 µM in experiment [3] and 3.1 µM in experiment [2].
As for `CS(=O)(=O)c1ccc(C#CC(=O)c2ccc(O)cc2)cc1`, the IC50 in experiment [1] was 0.32 µM; in experiment [3], 0.3 µM; in experiment [2], 3.5 µM.
For `COc1cccc(C(=O)C#Cc2ccc(S(C)(=O)=O)cc2)c1`, the IC50 in experiment [1] is greater than 10 µM; in experiment [3] it was 9 µM; in experiment [2], greater than 100 µM.
On to `COc1cc(C(=O)C#Cc2ccc(S(C)(=O)=O)cc2)cc(OC)c1OC`, for which the half-inhibitory concentration (IC50) in experiment [1] is greater than 10 µM; in experiment [3], 7 µM; in experiment [2], greater than 100 µM.
As to `Cc1ccc(C(=O)C#Cc2ccc(S(C)(=O)=O)cc2)cc1`, the results for the IC50 in experiment [1], in experiment [3] and in experiment [2] were greater than 10 µM, greater than 10 µM and greater than 100 µM, respectively.
For the compound `COc1ccc(C(=O)C#Cc2ccc(S(C)(=O)=O)cc2)cc1O`, the IC50 in experiment [1] was 0.3 µM; in experiment [3], greater than 10 µM; in experiment [2] it was 1 µM.
`CS(=O)(=O)c1ccc(C#CC(=O)c2ccc(F)c(F)c2)cc1`: the 50% inhibitory concentration (IC50) in experiment [1] is 3.2 µM; in experiment [3] it was 0.4 µM; in experiment [2], 3.1 µM.
Turning to `CS(=O)(=O)c1ccc(C#CC(=O)c2ccc(C#N)cc2)cc1`, it took 31.5 µM to reach half-maximal inhibition in experiment [2] (IC50).
As to `CS(=O)(=O)c1ccc(C#CC(=O)c2cccc(O)c2)cc1`, the 50% inhibitory concentration (IC50) was 0.5 µM in experiment [1], 0.3 µM in experiment [3] and greater than 100 µM in experiment [2].
As to `COc1ccc(C(=O)C#Cc2ccc(S(C)(=O)=O)cc2)cc1`, the IC50 was 3.5 µM in experiment [1] and greater than 10 µM in experiment [3].
With `COc1cc(C(=O)C#Cc2ccc(S(C)(=O)=O)cc2)ccc1O`, the IC50 in experiment [1] was 0.1 µM; in experiment [3], greater than 10 µM; in experiment [2], 1.1 µM.
In the case of `CS(=O)(=O)c1ccc(C#CC(=O)c2ccc(F)cc2)cc1`, the results for the half-inhibitory concentration (IC50) in experiment [1], in experiment [3] and in experiment [2] were 1 µM, greater than 10 µM and 30 µM, respectively.
`O=c1cc(-c2ccc(O)c(O)c2)oc2cc(O)cc(O)c12` [LUTEOLIN]: in experiment [1], the IC50 worked out at 3.2 µM.

As a reminder, the IC50 is the concentration that gives 50% inhibition.

These data come from ChEMBL document CHEMBL1143476, “Synthesis and biological evaluation of 1,3-diphenylprop-2-yn-1-ones as dual inhibitors of cyclooxygenases and lipoxygenases” (Bioorg Med Chem Lett, 2005).
